Results published in patent US20230391786A1, “cGAS INHIBITORS” (Eli Lilly and Company, priority 2022, published 2023).

What follows are molecules tested against recombinant human cGAS (Homo sapiens (Human), UniProt Q8N884) (assay: In vitro inhibition assay of cGAS activity (cGAMP production, RapidFire mass spectrometry)). Conditions: 10 nM recombinant human cGAS, 60 nM 75-bp dsDNA, ATP, GTP, room temperature 3 hours, read-out: IC50 (μM), In vitro inhibition assay for Compounds 1-94.
Type: biochemical
Description: Expression and Purification of Recombinant cGAS Protein: Insert cDNA encoding full-length of human cGAS into a modified bacterial expression vector containing an in-frame His6-tag. Induce the E. coli strain BL21(DE3) harboring the plasmid with 1 mM IPTG (Isopropyl β-D-1-thiogalactopyranoside) at 18° C. overnight. Purify the His6-tagged cGAS protein over HISpur Ni-NTA resin in the presence of benzonase and RNase followed by Superdex 200 size exclusion chromatography with storage buffer (50 mM Tris-HCl pH 7.5, 300 mM NaCl, 1 mM DTT, 10% glycerol).
In vitro inhibition assay of cGAS activity: Add a 5 μL mixture containing 10 mM Tris-Cl pH 7.5, 50 mM NaCl, 5 mM MgCl2, 1 mM DTT, 0.01% Triton X-100, 60 nM 75-bp dsDNA, […], 50 μM GTP, 10 nM of recombinant human cGAS, and serial dilutions of a test compound in DMSO to a 384-well plate and incubate at room temperature for 3 hours. Quench the reaction by the addition of 100 μL of stop solution containing 0.1% formic acid and 0.1 μM internal standard (3′3′-difluoro cGAMP). Measure the amount of cGAMP produced by RapidFire 365 mass spectrometry and evaluate inhibitory effect of a compound by plotting percent specific inhibition of cGAMP production against log concentration of the test compound. Calculate IC50 values using a 4-parameter non-linear logistic equation (y=(S0+((SInf−S0)/(1+((qAC50/x)^nHill))))).

Chain of recombinant human cGAS (Q8N884 whole entry): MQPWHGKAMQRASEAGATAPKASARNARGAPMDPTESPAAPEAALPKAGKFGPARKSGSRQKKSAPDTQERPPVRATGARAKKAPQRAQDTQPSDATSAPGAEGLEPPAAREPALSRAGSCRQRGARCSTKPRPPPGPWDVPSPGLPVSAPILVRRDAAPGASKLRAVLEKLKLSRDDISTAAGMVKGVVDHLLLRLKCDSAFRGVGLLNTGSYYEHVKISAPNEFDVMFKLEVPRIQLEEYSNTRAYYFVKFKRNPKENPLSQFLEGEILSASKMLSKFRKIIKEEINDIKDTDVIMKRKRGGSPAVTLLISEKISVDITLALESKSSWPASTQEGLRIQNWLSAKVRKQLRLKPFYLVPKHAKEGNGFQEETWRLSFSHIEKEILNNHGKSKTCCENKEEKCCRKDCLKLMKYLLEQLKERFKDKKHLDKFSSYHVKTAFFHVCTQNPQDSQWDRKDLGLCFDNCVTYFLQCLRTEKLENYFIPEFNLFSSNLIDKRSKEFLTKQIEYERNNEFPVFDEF

SMILES	IC50
O=C(O)C1CCn2c(c(-c3cn[nH]c3)c3ccc(Cl)c(Cl)c32)C1 (single isomer, unassigned) [Example 13, 3,4-Dichloro-10-(1H-pyrazol-4-yl)-6,7,8,9-tetrahydropyrido[1,2-a]indole-8-carboxylic acid]	0.0117 µM
O=C(O)C1CCn2c(c(-c3cn[nH]c3)c3ccc(Cl)c(Cl)c32)C1 (single isomer, unassigned) [Example 14, 3,4-Dichloro-10-(1H-pyrazol-4-yl)-6,7,8,9-tetrahydropyrido[1,2-a]indole-8-carboxylic acid]	0.0309 µM
OCC1CCn2c(c(-c3cn[nH]c3)c3ccc(Cl)c(Cl)c32)C1 (single isomer, unassigned) [Example 15, [3,4-Dichloro-10-(1H-pyrazol-4-yl)-6,7,8,9-tetrahydropyrido[1,2-a]indol-8-yl]methanol]	0.289 µM
OC1CCc2c(-c3cn[nH]c3)c3ccc(Cl)c(Cl)c3n2C1 (single isomer, unassigned) [Example 19, 3,4-Dichloro-10-(1H-pyrazol-4-yl)-6,7,8,9-tetrahydropyrido[1,2-a]indol-7-ol]	0.0663 µM
CC(=O)NC1CCc2c(-c3cn[nH]c3)c3ccc(Cl)c(Cl)c3n2C1 (single isomer, unassigned) [Example 20, N-[3,4-Dichloro-10-(1H-pyrazol-4-yl)-6,7,8,9-tetrahydropyrido[1,2-a]indol-7-yl]acetamide]	0.155 µM
CS(=O)(=O)NC1CCc2c(-c3cn[nH]c3)c3ccc(Cl)c(Cl)c3n2C1 (single isomer, unassigned) [Example 22, N-[3,4-Dichloro-10-(1H-pyrazol-4-yl)-6,7,8,9-tetrahydropyrido[1,2-a]indol-7-yl]methanesulfonamide]	0.0225 µM
O=C(O)C1CCCn2c(c(-c3cn[nH]c3)c3ccc(Cl)c(Cl)c32)C1 (single isomer, unassigned) [Example 25, 3,4-Dichloro-11-(1H-pyrazol-4-yl)-7,8,9,10-tetrahydro-6H-azepino[1,2-a]indole-9-carboxylic acid]	0.0412 µM
CC(=O)NC1CCn2c1c(-c1cn[nH]c1)c1ccc(Cl)c(Cl)c12 (single isomer, unassigned) [Example 26, N-(5,6-Dichloro-9-(1H-pyrazol-4-yl)-2,3-dihydro-1H-pyrrolo[1,2-a]indol-1-yl)acetamide]	0.0229 µM
Cc1[nH]c2c(Cl)c(Cl)ccc2c1-c1cn[nH]c1 [Example 2, 6,7-Dichloro-2-methyl-3-(1H-pyrazol-4-yl)-1H-indole]	0.0557 µM
Cc1c(-c2cn[nH]c2)c2ccc(Cl)c(Cl)c2n1C [Example 3, 6,7-Dichloro-1,2-dimethyl-3-(1H-pyrazol-4-yl)indole]	0.0614 µM
O=C1Cn2c(c(-c3cn[nH]c3)c3ccc(Cl)c(Cl)c32)CCN1 [Example 7, 7,8-Dichloro-11-(1H-pyrazol-4-yl)-1,2,3,5-tetrahydro-[1,4]diazepino[1,7-a]indol-4-one]	0.0436 µM
Clc1ccc2c(-c3cn[nH]c3)c(CNc3nncs3)[nH]c2c1Cl [Example 10, N-[[6,7-Dichloro-3-(1H-pyrazol-4-yl)-1H-indol-2-yl]methyl]-1,3,4-thiadiazol-2-amine]	0.0629 µM
O=C1CCc2c(-c3cn[nH]c3)c3ccc(Cl)c(Cl)c3n2C1 [Example 17, 3,4-Dichloro-10-(1H-pyrazol-4-yl)-8,9-dihydro-6H-pyrido[1,2-a]indol-7-one]	0.0427 µM
Clc1ccc2c(-n3ccnc3)c[nH]c2c1Cl [Example 29, 6,7-Dichloro-3-imidazol-1-yl-1H-indole]	0.0447 µM
Clc1c(Br)ccc2c(-c3cn[nH]c3)c[nH]c12 [Example 30, 6-bromo-7-chloro-3-(1H-pyrazol-4-yl)-1H-indole]	0.034 µM
O=C(O)CCn1cc(-c2cn[nH]c2)c2ccc(Cl)c(Cl)c21 [Example 35, 3-[6,7-Dichloro-3-(1H-pyrazol-4-yl)indol-1-yl]propanoic acid]	0.0737 µM

The remaining lines, values ahead:

IC50	SMILES
0.0674 µM	OCC1CCn2c(c(-c3cn[nH]c3)c3ccc(Cl)c(Cl)c32)C1 (single isomer, unassigned) [Example 16, [3,4-Dichloro-10-(1H-pyrazol-4-yl)-6,7,8,9-tetrahydropyrido[1,2-a]indol-8-yl]methanol]
0.152 µM	OC1CCc2c(-c3cn[nH]c3)c3ccc(Cl)c(Cl)c3n2C1 (single isomer, unassigned) [Example 18, 3,4-Dichloro-10-(1H-pyrazol-4-yl)-6,7,8,9-tetrahydropyrido[1,2-a]indol-7-ol]
0.0243 µM	CC(=O)NC1CCc2c(-c3cn[nH]c3)c3ccc(Cl)c(Cl)c3n2C1 (single isomer, unassigned) [Example 21, N-[3,4-Dichloro-10-(1H-pyrazol-4-yl)-6,7,8,9-tetrahydropyrido[1,2-a]indol-7-yl]acetamide]
0.0887 µM	CS(=O)(=O)NC1CCc2c(-c3cn[nH]c3)c3ccc(Cl)c(Cl)c3n2C1 (single isomer, unassigned) [Example 23, N-[3,4-Dichloro-10-(1H-pyrazol-4-yl)-6,7,8,9-tetrahydropyrido[1,2-a]indol-7-yl]methanesulfonamide]
0.0834 µM	O=C(O)C1CCCn2c(c(-c3cn[nH]c3)c3ccc(Cl)c(Cl)c32)C1 (single isomer, unassigned) [Example 24, 3,4-Dichloro-11-(1H-pyrazol-4-yl)-7,8,9,10-tetrahydro-6H-azepino[1,2-a]indole-9-carboxylic acid]
0.158 µM	CC(=O)NC1CCn2c1c(-c1cn[nH]c1)c1ccc(Cl)c(Cl)c12 (single isomer, unassigned) [Example 27, N-(5,6-Dichloro-9-(1H-pyrazol-4-yl)-2,3-dihydro-1H-pyrrolo[1,2-a]indol-1-yl)acetamide]
0.0863 µM	Clc1ccc2c(-c3cn[nH]c3)c[nH]c2c1Cl [Example 1, 6,7-Dichloro-3-(1H-pyrazol-4-yl)-1H-indole]
0.0641 µM	Cc1[nH]c2c(Cl)c(Cl)ccc2c1-n1ccnc1 [Example 4, 6,7-Dichloro-3-imidazol-1-yl-2-methyl-1H-indole]
0.0246 µM	CC(=O)NCc1[nH]c2c(Cl)c(Cl)ccc2c1-c1cn[nH]c1 [Example 5, N-[[6,7-Dichloro-3-(1H-pyrazol-4-yl)-1H-indol-2-yl]methyl]acetamide]
0.0578 µM	Clc1ccc2c(-c3cn[nH]c3)c(CNc3ccon3)[nH]c2c1Cl [Example 6, N-[[6,7-Dichloro-3-(1H-pyrazol-4-yl)-1H-indol-2-yl]methyl]isoxazol-3-amine]
0.0531 µM	O=C1Cn2c(c(-c3cn[nH]c3)c3ccc(Cl)c(Cl)c32)CN1 [Example 8, 6,7-Dichloro-10-(1H-pyrazol-4-yl)-2,4-dihydro-1H-pyrazino[1,2-a]indol-3-one]
0.0423 µM	Cc1nnc(NCc2[nH]c3c(Cl)c(Cl)ccc3c2-c2cn[nH]c2)s1 [Example 11, N-[[6,7-Dichloro-3-(1H-pyrazol-4-yl)-1H-indol-2-yl]methyl]-5-methyl-1,3,4-thiadiazol-2-amine]
0.0649 µM	Cn1cnnc1NCc1[nH]c2c(Cl)c(Cl)ccc2c1-c1cn[nH]c1 [Example 12, N-[[6,7-Dichloro-3-(1H-pyrazol-4-yl)-1H-indol-2-yl]methyl]-4-methyl-1,2,4-triazol-3-amine]
0.064 µM	O=C(Cc1[nH]c2c(Cl)c(Cl)ccc2c1-c1cn[nH]c1)NCc1cnccn1 [Example 28, 2-[6,7-Dichloro-3-(1H-pyrazol-4-yl)-1H-indol-2-yl]-N-(pyrazin-2-ylmethyl)acetamide]
0.0462 µM	O=C1NCCn2c1c(-c1cn[nH]c1)c1ccc(Cl)c(Cl)c12 [Example 31, 6,7-Dichloro-10-(1H-pyrazol-4-yl)-3,4-dihydro-2H-pyrazino[1,2-a]indol-1-one]
0.0411 µM	O=C1c2c(-c3cn[nH]c3)c3ccc(Cl)c(Cl)c3n2CCN1CCO [Example 32, 6,7-Dichloro-2-(2-hydroxyethyl)-10-(1H-pyrazol-4-yl)-3,4-dihydropyrazino[1,2-a]indol-1-one]
0.0825 µM	NCCN1CCn2c(c(-c3cn[nH]c3)c3ccc(Cl)c(Cl)c32)C1=O [Example 33, 2-(2-Aminoethyl)-6,7-dichloro-10-(1H-pyrazol-4-yl)-3,4-dihydropyrazino[1,2-a]indol-1-one]
0.0691 µM	Clc1ccc2c(-c3cn[nH]c3)cn(-c3cn[nH]n3)c2c1Cl [Example 34, 6,7-Dichloro-3-(1H-pyrazol-4-yl)-1-(2H-triazol-4-yl)indole]
0.0535 µM	O=C(O)Cn1cc(-n2cc(-c3cn[nH]c3)c3ccc(Cl)c(Cl)c32)cn1 [Example 36, 2-[4-[6,7-Dichloro-3-(1H-pyrazol-4-yl)indol-1-yl]pyrazol-1-yl]acetic acid]

Same assay, conditions: 10 nM recombinant human cGAS, 60 nM 75-bp dsDNA, ATP, GTP, room temperature 3 hours, read-out: IC50 (μM), In vitro inhibition assay for Compounds 95-348

SMILES	IC50
O[C@@H]1CC[C@@H](Oc2cc(Cl)c(Cl)c3[nH]cc(-c4cn[nH]c4)c23)C1 (racemic) [Example 99, trans-3-((6,7-Dichloro-3-(1H-pyrazol-4-yl)-1H-indol-4-yl)oxy)cyclopentan-1-ol (racemic mixture)]	0.0593 µM
